# Experimental data: PMC11641365, “Evaluation of In Vitro Biological Activity of Flavanone/Chromanone Derivatives: Molecular Analysis of Anticancer Mechanisms in Colorectal Cancer” (International Journal of Molecular Sciences, 2024)
# What was measured:
# Type in all cases: cell-based, human
# Caco-2 [1] = experiment: Autophagy induction, monodansylcadaverine (MDC) fluorescence; conditions: compound at IC50, 24 h, vs control
# Method: Autophagy induction in cells treated with the tested drugs was determined by measuring Monodansylcadaverine (MDC; Sigma-Aldrich; St. Louis, MO, USA) fluorescence according to a modified method described by Vázquez. […] In the cell, MDC accumulates in lipid-rich cell membranes. It has been shown that MDC can be used as a dye for detecting autophagy, as it accumulates in autophagolysosomes as a result of interaction with membrane lipids.
# Cells were seeded in black 96-well fluorometric microplates at a density of 10 × 10^3 cells/mL. […] Following compound incubation, the medium was removed, and the cell monolayers were washed twice with HBSS (140 mM NaCl, 5 mM KCl, 0.8 mM MgCl2, 1.8 mM CaCl2, 1 mM Na2HPO4, 10 mM HEPES, and 1% glucose). A solution of MDC at a final concentration of 50 μM was added to each well and incubated in a CO2 cell culture incubator at 37 °C for 15 min. After incubation with MDC, the probe was removed, and the cells were lysed with 50 μL of lysis buffer (10 mM TRIS-HCl; pH 8 containing 0.1% Triton X-100). After lysis, fluorescence was measured at an excitation wavelength of λex = 390 nm and an emission wavelength of λem = 460 nm using a Perkin-Elmer LS-5B spectrofluorometer (Waltham, MA, USA). In order to normalize the number of cells in individual samples, the amount of DNA was determined by adding 50 μL of EB (final concentration 0.2 mM) to each well after measuring the MCB fluorescence and measuring the EB fluorescence at an excitation wavelength of λex = 530 nm and an emission wavelength of λem = 590 nm. The results were calculated as the ratio of MDC fluorescence to EB fluorescence.
# Caco-2 [2] = experiment: Mitochondrial membrane potential (ΔΨm), JC-1 probe; conditions: compound at IC50, vs control
# Description: (§1) Changes in mitochondrial potential in cancer cells exposed to the tested derivatives were monitored using the fluorescent probe JC-1. In non-apoptotic cells, JC-1 aggregates emit red-orange fluorescence. During changes in mitochondrial membrane potential, such as those associated with the initiation of PCD stages (both hyperpolarization and depolarization of mitochondrial membranes), JC-1 is converted to monomers, emitting green fluorescence.
# (§2) 5,5,6,6-Tetrachloro-1,1,3,3-tetraethylbenzimidazolylcarbocyanine iodide (JC-1) is one of the most reliable fluorescent probes used to assess changes in mitochondrial membrane potential (ΔΨ). In living cells with intact mitochondrial membranes, the lipophilic, cationic dye JC-1 penetrates the negatively charged mitochondrial matrix as a monomer, where it forms fluorescent aggregates with red-orange fluorescence (λex = 514 nm, λem = 590). […] The fluorescence ratio of aggregates (λem = 590 nm) and monomers (λem = 529 nm)—590 nm/529 nm—reflects the level of damage to the mitochondrial membrane.
# (§3) Cells were seeded in black 96-well fluorometric microplates at a density of 10 × 10^3 cells/mL. […] Following treatment, the medium was removed, and the cell monolayers were washed twice with HBSS (140 mM NaCl, 5 mM KCl, 0.8 mM MgCl2, 1.8 mM CaCl2, 1 mM Na2HPO4, 10 mM HEPES, and 1% glucose). Then, 50 μL of a JC-1 solution in HBSS was added to each well, and the cells were incubated for 30 min in the dark at 37 °C (final JC-1 concentration 5 μM). After removing the fluorescent dye and replacing it with fresh HBSS, fluorescence measurements were taken using a Perkin-Elmer LS-5B spectrofluorometer (Perkin-Elmer LS-5B spectrofluorometer, Waltham, MA, USA). The excitation and emission wavelengths for JC-1 monomers were 514 nm and 529 nm, respectively, while for aggregates, they were 514 nm and 590 nm. The results were expressed as a percentage change in the fluorescence ratio of JC-1 aggregates to JC-1 monomers compared to the control, which was set at 100%.
# HCT 116 [3] = experiment: Mitochondrial membrane potential (ΔΨm), JC-1 probe; conditions: compound at IC50, vs control
# Description: as §1, §2, §3
# Caco-2 [4] = experiment: Superoxide anion level, DHE probe; conditions: compound at IC50, 24 h, vs control
# Method: (§4) Superoxide anion (O2^•−) levels were quantified using a microplate spectrofluorometric assay with dihydroethidium (DHE) (Life Technologies, Carlsbad, CA, USA). DHE is a well-established fluorogenic probe for intracellular superoxide detection. […] The reaction between superoxide and DHE produces a highly specific red fluorescent product, 2-hydroxyethidium (2-OH-E ^+).
# (§5) Cells were seeded in black 96-well fluorometric microplates at a density of 10 × 10^3 cells/mL. […] Following compound incubation, the medium was removed, and the cell monolayers were washed twice with HBSS (140 mM NaCl, 5 mM KCl, 0.8 mM MgCl2, 1.8 mM CaCl2, 1 mM Na2HPO4, 10 mM HEPES, and 1% glucose). A volume of 50 µL of DHE solution in HBSS (final concentration 5 μM) was added to each well, and the cells were incubated for 30 min in the dark at 37 °C. After incubation with the DHE, fluorescence measurements were conducted using a Perkin-Elmer LS-5B spectrofluorometer (Waltham, MA, USA) at the following excitation and fluorescence emission wavelengths: λex = 498 nm/λem = 582 nm. The fluorescence intensity of control cells was arbitrarily assigned a value of 100%. The results were expressed as percentages of control, calculated by comparing the fluorescence intensity ratio of the test samples to controls (100%). The fluorescence of samples was denoted as Δf in relation to the control.
# SW620 = experiment: Superoxide anion level, DHE probe; conditions: compound at IC50, 24 h, vs control
# Method: as §4, §5
# HCT 116 [5] = experiment: Superoxide anion level, DHE probe; conditions: compound at IC50, 24 h, vs control
# Method: as §4, §5
compound,measurement,setting,value
O=C1/C(=C/c2ccccc2)COc2ccccc21 [Compound 1],Increase in MDC fluorescence intensity (autophagy),Caco-2 [1],25%
same,Decrease in ΔΨm (depolarization),Caco-2 [2],~ 30%
same,Change in mitochondrial membrane potential ΔΨm,HCT 116 [3],no statistically significant changes
same,Increase in O2−• (superoxide anion) levels,Caco-2 [4],30%
same,Increase in O2−• (superoxide anion) levels,SW620,10–15%
same,Increase in O2−• (superoxide anion) levels,HCT 116 [5],10–15%
